Values of other authors as cited in patent publication US11549199B2, “Active apparel and fabric and coverings” (priority 2017, dated 2023).

Test system: gram-positive and gram-negative bacteria

## Poly-hexamethylene biguanide (PHMB) hydrochloride
  activity against gram-positive and gram-negative bacteria: active
